Results reported in BindingDB's records for patent US12384798 (Nanjing Ruijie Pharma Co., 2025).

Assays:
[1] = biological target: Acetyl-CoA carboxylase 1 (Homo sapiens, UniProt Q13085); assay: In Vitro Assay of Acetyl-CoA Carboxylase (ACC) Inhibition
Protocol: (§1) An exemplary procedure for the in vitro ACC inhibition assay, which can be used to determine the inhibitory action of the compounds of the invention toward either ACC1 or ACC2, is as follows. The ADP-Glo™ kinase assay kit from Promega was used. The ADP-Glo™ kinase assay is a luminescent ADP detection assay to measure enzymatic activity by quantifying the amount of ADP produced during an enzyme reaction. The assay was performed in two steps; first, after the enzyme reaction, an equal volume of ADP-Glo™ reagent was added to terminate the reaction and deplete the remaining ATP. Then, the kinase detection reagent was added to simultaneously convert ADP to ATP and allow the newly synthesized ATP to be measured using a luciferase/luciferin reaction. Luminescence can be correlated to ADP concentrations by using an ATP-to-ADP conversion curve. The detailed procedure was as follows. 4.5 μL of a working solution was added to a 384-well plate. […] A final ACC reaction solution consisted of: 0.5 nM ACC, 10 μM ATP, 5 μM acetyl-CoA, and 15 mM NaHCO3; and the final concentrations of the compound were measured as follows: 1 μM, 0.333 μM, 0.111 μM, 0.037 μM, 0.0123 μM, 0.00411 μM, 0.00137 μM, 0.000457 μM, 0.000152 μM, and 0.000051 μM. […] The plates were incubated at room temperature for 40 minutes, then read on a Perkin Elmer EnVision 2104 plate reader for luminescence in relative light unit (RLU).

[2] = biological target: Acetyl-CoA carboxylase 2 (Homo sapiens, UniProt O00763); assay: as above
Chain of Acetyl-CoA carboxylase 2 (O00763 whole entry): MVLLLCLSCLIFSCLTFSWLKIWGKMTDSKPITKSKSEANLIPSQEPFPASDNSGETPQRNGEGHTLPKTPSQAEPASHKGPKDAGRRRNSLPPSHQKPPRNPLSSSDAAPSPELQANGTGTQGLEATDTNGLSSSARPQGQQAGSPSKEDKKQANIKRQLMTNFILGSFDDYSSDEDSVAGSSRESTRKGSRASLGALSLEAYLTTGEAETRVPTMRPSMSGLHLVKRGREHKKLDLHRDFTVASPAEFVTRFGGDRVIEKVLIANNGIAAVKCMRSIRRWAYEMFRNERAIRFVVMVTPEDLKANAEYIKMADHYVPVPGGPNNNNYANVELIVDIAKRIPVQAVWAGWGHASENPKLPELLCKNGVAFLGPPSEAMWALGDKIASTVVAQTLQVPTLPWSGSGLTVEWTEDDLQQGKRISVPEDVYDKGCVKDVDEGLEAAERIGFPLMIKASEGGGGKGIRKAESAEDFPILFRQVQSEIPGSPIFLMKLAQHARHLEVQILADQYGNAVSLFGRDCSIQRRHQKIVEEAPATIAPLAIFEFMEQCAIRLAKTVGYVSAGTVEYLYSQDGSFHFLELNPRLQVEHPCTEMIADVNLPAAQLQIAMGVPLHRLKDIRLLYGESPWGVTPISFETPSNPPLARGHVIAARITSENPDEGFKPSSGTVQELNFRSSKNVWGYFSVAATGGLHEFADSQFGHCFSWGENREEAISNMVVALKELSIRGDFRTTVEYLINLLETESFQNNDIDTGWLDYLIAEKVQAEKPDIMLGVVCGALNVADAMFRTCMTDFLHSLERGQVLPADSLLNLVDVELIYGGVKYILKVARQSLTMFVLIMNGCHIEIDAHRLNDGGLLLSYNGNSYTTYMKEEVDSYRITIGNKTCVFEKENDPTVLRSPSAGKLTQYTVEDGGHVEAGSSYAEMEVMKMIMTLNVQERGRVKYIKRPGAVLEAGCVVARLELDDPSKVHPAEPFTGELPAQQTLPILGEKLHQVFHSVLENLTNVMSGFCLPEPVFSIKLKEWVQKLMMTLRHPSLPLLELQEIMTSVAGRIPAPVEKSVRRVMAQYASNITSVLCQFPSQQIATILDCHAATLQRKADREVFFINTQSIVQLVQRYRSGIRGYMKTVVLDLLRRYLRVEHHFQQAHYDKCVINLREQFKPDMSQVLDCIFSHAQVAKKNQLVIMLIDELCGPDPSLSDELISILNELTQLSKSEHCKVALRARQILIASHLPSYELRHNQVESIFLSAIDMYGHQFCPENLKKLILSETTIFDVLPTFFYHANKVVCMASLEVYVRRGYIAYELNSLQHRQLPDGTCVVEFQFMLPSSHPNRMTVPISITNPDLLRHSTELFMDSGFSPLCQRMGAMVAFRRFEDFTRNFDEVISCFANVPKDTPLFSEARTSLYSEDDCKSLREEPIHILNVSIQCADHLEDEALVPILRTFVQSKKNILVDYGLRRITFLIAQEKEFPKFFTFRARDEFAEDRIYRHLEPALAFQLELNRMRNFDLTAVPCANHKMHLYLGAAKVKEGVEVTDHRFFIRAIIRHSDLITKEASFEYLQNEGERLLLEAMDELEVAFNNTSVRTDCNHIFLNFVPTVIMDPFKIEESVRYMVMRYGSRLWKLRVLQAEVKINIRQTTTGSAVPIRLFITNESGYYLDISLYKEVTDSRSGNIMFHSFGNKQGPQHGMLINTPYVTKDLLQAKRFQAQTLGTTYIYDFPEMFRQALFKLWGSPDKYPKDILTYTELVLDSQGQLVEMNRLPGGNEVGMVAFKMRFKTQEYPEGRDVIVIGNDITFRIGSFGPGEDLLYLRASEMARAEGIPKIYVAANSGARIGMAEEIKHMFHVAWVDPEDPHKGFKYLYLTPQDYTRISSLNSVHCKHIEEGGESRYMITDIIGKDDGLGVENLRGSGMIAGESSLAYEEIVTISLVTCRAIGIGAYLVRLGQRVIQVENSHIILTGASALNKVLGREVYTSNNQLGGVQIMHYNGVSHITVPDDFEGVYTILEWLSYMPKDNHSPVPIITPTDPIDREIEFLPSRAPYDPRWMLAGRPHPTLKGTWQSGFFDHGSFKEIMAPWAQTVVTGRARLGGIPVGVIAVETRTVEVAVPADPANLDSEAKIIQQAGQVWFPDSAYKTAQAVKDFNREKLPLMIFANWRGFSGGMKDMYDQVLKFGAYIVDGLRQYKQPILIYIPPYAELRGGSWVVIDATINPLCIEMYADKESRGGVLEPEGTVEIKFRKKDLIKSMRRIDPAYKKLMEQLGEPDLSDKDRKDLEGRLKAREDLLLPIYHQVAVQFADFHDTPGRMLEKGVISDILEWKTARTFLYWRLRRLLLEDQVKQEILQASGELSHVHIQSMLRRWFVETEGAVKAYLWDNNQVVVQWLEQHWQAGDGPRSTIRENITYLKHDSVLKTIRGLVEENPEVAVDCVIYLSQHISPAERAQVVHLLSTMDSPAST
Protocol: as §1

An IC50 [1] of 0.487 nM and an IC50 [2] of 10 nM were found for `COc1ccccc1[C@H](Cn1c(=O)n(CC2CC(C(=O)O)C2)c(=O)c2c(C)c(-c3ncco3)sc21)OC1CCOCC1` (some centres not stated) [US12384798, Compound c-1] in this work.
